The record followed here is ChEMBL document CHEMBL2010693, “Scaffold hybridization in generation of indenoindolones as anticancer agents that induce apoptosis with cell cycle arrest at G2/M phase” (Bioorg Med Chem Lett, 2012).

Activity calls are given as the source filed them. The rule behind the calls is not given here.

Series [1] has as its system HEK293. Briefly: Induction of apoptosis in human HEK293 cells assessed as increase in induction of PARP cleavage after 48 hrs by Western blot analysis. Format: functional, cell-based.
For series [2], the system named is HEK293. In words: Cell cycle arrest in human HEK293 cells assessed as accumulation at G2/M phase at LC50 after 48 hrs by propidium iodide staining based FACS analysis (reference value: 2.76 %). Type of series: functional. A general note: Flow cytometry measures light scatter and fluorescence of single cells or particles in a stream.
For series [3], the system named is HEK293. Briefly: Cell cycle arrest in human HEK293 cells assessed as accumulation at S phase at LC50 after 48 hrs by propidium iodide staining based FACS analysis (reference value: 18.92 %). Format: functional.
Series [4] deals with HEK293. Briefly: Induction of apoptosis in human HEK293 cells assessed as increase in caspase-3 cleavage after 48 hrs by Western blot analysis. Type of series: functional, cell-based. For orientation: Immunoblotting shows a protein as a band on a membrane.
The test system of series [5] is HEK293. In words: Induction of apoptosis in human HEK293 cells assessed as reduction of Bcl-xL level after 48 hrs by Western blot analysis. Type of series: functional, cell-based.
Series [6] in a line: Cytotoxicity against african green monkey Vero cells after 72 hrs by MTT assay. Type of series: cell-based. The following applies: chlorocebus sabaeus, read-out: LC50.
In series [7] the test system is HEK293. In words: Induction of apoptosis in human HEK293 cells assessed as punchate nuclei at LC50 after 48 hrs using DAPI staining method. Type of series: functional, cell-based.
In series [8] the test system is HEK293. Briefly: Induction of apoptosis in human HEK293 cells assessed as shrinkage of nuclei at LC50 after 48 hrs using DAPI staining method. Type of series: functional, cell-based.
Series [9] has as its system HEK293. Briefly: Cytotoxicity against human HEK293 cells after 72 hrs by MTT assay. Format: functional. To be noted: HEK293, 72 h, read-out: LC50 (the source's name). A general note: Tetrazolium assays rely on reduction of a dye to a coloured formazan, in cell work by metabolically active cells.
For series [10], the system named is HEK293. Briefly: Cell cycle arrest in human HEK293 cells assessed as accumulation at G0 phase at LC50 after 48 hrs by propidium iodide staining based FACS analysis (reference value: 3.5 %). Format: functional.
Series [11] deals with HEK293. Briefly: Induction of apoptosis in human HEK293 cells assessed as increase in caspase-3 expression after 48 hrs by immunohistochemistry analysis. Type of series: functional, cell-based.
The test system of series [12] is HEK293. In words: Cytotoxicity against human HEK293 cells after 24 hrs by MTT assay. To be noted: HEK293, 24 h, read-out: LC50 (the source's name). Format: functional.
Series [13] in a line: Cytotoxicity against african green monkey Vero cells after 48 hrs by MTT assay. Format: cell-based. To be noted: chlorocebus sabaeus, read-out: LC50.
Series [14] has as its system HEK293. Briefly: Cytotoxicity against human HEK293 cells after 48 hrs by MTT assay. Format: functional. To be noted: HEK293, 48 h, read-out: LC50 (the source's name).
A short description of series [15]: Cytotoxicity against african green monkey Vero cells after 24 hrs by MTT assay. Format: cell-based. The following applies: chlorocebus sabaeus, read-out: LC50.
The test system of series [16] is HEK293. In words: Induction of apoptosis in human HEK293 cells assessed as increase in Bax expression after 48 hrs by Western blot analysis. Format: functional, cell-based.
The subject of series [17] is HEK293. Briefly: Cell cycle arrest in human HEK293 cells assessed as accumulation at G1 phase at LC50 after 48 hrs by propidium iodide staining based FACS analysis (reference value: 53.56 %). Format: functional.
For series [18], the system named is HEK293. In words: Induction of apoptosis in human HEK293 cells assessed as bubble shape nuclei at LC50 after 48 hrs using DAPI staining method. Type of series: functional, cell-based.

Regarding `COc1cc2c(cc1OC)-c1[nH]c3ccccc3c1C2=O`, the result in series [1], in series [4], in [5], in series [7], in [8] and in [11] was Active. For the same molecule, the result in series [16] and in series [18] was Active. In addition, the Activity stood at 73.31% in series [2], 23.95% in series [3], 0.03% in [10] and 3.43% in [17]. Moreover, the CC50 at 72 h in [6] came to 55 µM. The CC50 was 12 µM in series [9], 16 µM in series [12] and 15 µM in series [14]. Moreover, the CC50 at 48 h in series [13] came to 54 µM. Moreover, the CC50 at 24 h in [15] was 47 µM.
For the molecule `O=C1c2ccccc2-c2c1c1ccccc1n2Cc1ccccc1`, the outcome in series [1], in [4], in series [5], in series [7], in series [8] and in series [11] was Active. Further, the outcome in [16] and in [18] was Active. Also, the Activity in series [2] is given as 38.7%; in series [3], 20.19%; in [10] it was 0.44%; in [17], 41.21%. The CC50 at 72 h in series [6] was 45 µM. For the same molecule, the results for the CC50 in series [9], in [12] and in series [14] were 16 µM, 50 µM and 17 µM, respectively. Moreover, the CC50 at 48 h in series [13] was 53 µM. Further, in series [15], the CC50 at 24 h was found to be 57 µM.
In the case of `COc1cc2c(c(OC)c1OC)-c1c(c3ccccc3n1C)C2=O`, the result in [1], in series [4], in series [5], in series [7], in [8] and in series [11] was Active. For the same molecule, the outcome in series [16] and in series [18] was Active. Moreover, the Activity in series [2] was 57.56%; in series [3], 19.52%; in [10], 0.23%; in series [17], 22.98%. In addition, in series [6], the CC50 at 72 h was found to be 35 µM. Moreover, the figures for the CC50 in [9], in series [12] and in [14] were 16 µM, 39 µM and 17 µM, respectively. Moreover, the CC50 at 48 h in [13] stood at 39 µM. Moreover, the CC50 at 24 h in series [15] came to 42 µM.
Consider `O=C1c2ccccc2-c2[nH]c3ccccc3c21`, for which the result in series [1], in series [4], in series [5], in series [7], in series [8] and in series [11] was Active. The outcome in series [16] and in series [18] was Active. Moreover, the Activity in series [2] was determined as 76.44%; in series [3], 17.35%; in [10], 0.05%; in series [17], 6.29%. Also, the CC50 at 72 h in series [6] was 40 µM. The CC50 in [9] came out at 14 µM; in series [12] it was 50 µM; in series [14] it was 15 µM. Also, the CC50 at 48 h in series [13] stood at 48 µM. The CC50 at 24 h in [15] worked out at 56 µM.
`COc1cc([C@@H]2c3cc4c(cc3[C@@H](O[C@@H]3O[C@@H]5CO[C@@H](C)O[C@H]5[C@H](O)[C@H]3O)[C@H]3COC(=O)[C@H]23)OCO4)cc(OC)c1O` [ETOPOSIDE]: the CC50 at 48 h in series [13] was 18 µM. Besides, the CC50 in series [14] stood at 28 µM.
In the case of `O=C1c2cc(F)ccc2-c2[nH]c3ccccc3c21`, the outcome in series [1], in series [4], in series [5], in series [7], in [8] and in series [11] was Active. The outcome in [16] and in [18] was Active. In addition, the Activity in series [2] was 38.9%; in series [3] it was 23.79%; in series [10], 0.46%; in [17] it was 37.31%. For the same molecule, the CC50 at 72 h in series [6] was determined as 65 µM. Further, the CC50 in series [9] came out at 15 µM; in series [12], 18 µM; in series [14] it was 22 µM. Moreover, the CC50 at 48 h in series [13] was above 100 µM. For the same molecule, the CC50 at 24 h in series [15] is above 100 µM.
Regarding `O=c1[nH]cc(F)c(=O)[nH]1` [FLUOROURACIL], the CC50 in series [14] was 25 µM.
